SMILES strings stand for the structures. Where two headings read alike, the source gives them in different places.

One test relates to Bcl-xL. The experiment in a line: Western blot, Bcl-xL phosphorylation. To be noted: 24 hour treatment. The format is cell-based, human. Here is the method: (§1) Cells are plated at a density of 1.5×10^6 cells per 100 mm plate. The next day cells are treated with vehicle control (0.1% DMSO) or test compound for 24 h. Cells are harvested by washing monolayers twice with PBS, then lysing with 300 ul of lysis buffer[20 mM Tris (pH 8.0), […], 100 mM NaCl, 0.5% NP40, 0.0125% DOC, 2.5% glycerol, 1 mM vanadate, 25 mM sodium fluoride and protease inhibitor cocktail (1:500 dilution, Sigma)]. Lysates were spun at 12,000× g and the supernatant transferred to a new tube. Protein concentration of the lysates is determined using BCA protein assay Reagent (Pierce). Samples (75 μg) are resolved by SDS-PAGE on a 7.5% or 14% tris-glycine gel for Raf-1 and Bcl-xL, respectively, and transferred to nitrocellulose. Immunodetection is performed as described by Amersham Vistra Fluorescence Western blotting Kit directions with the following modifications: the membrane is blocked with 5% milk (Carnation Non-Fat Dry Milk) in buffer containing 20 mM Tris-HCl (pH=7.4), 100 mM NaCl, and 0.2% Tween 20 (TBST) overnight and is subsequently incubated for 2 h with primary antibody (Santa Cruz C-12 for Raf-1 and Santa Cruz H-62 for Bcl-xL), followed by fluorescein-linked anti-rabbit Ig in 5% milk and anti-fluorescein alkaline phosphatase conjugate in TBST at 1:500 and 1:2000 dilutions, respectively. A Storm 860 (Molecular Dynamics) is used to detect fluorescent product according to the manufacturer's instructions.
(In general: Immunoblotting shows a protein as a band on a membrane.)

A further test deals with HCT-15 colon cells. As to the kind of experiment: Antiproliferative assay, methylene blue staining. The note with it: Homo sapiens, read-out: IC50 antiproliferative activity. The format is cell-based. From the text:
The following cell lines are obtained from the American Type Culture Collection (ATCC, Rockville, Md., USA): human colon carcinomas HCT-15 (CCL 225) and HCT-116 (CCL 247), human lung adenocarcinoma A549 (CCL 185), human large cell carcinoma NCI-H460 (HTB 177), estrogen-independent breast carcinoma MDA-MB-231 ([…]), prostate cancer cell line Du 145 (HTB 81). The human KB-31 (drug-sensitive) and KB-8511 (multidrug-resistant, Pgp170 overexpressing) epidermoid carcinoma cells are obtained from Dr. R. M. Baker, Roswell Park Memorial Institute (Buffalo, N.Y., USA) and have been previously described (Akiyam S, et al. Somatic Cell Molec Genetics 1985;11:117-126 and Fojo A, et al., Cancer Res. […];45:3002-3007). The human metastatic prostate carcinoma PC-3M is obtained from Dr. I. J. Fidler (MD Anderson Cancer Center, Houston, Tex., USA). The estrogen-dependent human breast carcinoma cell line MCF-7/ADR (multidrug resistant) is a subline of the MCF-7 cell line (ATCC HTB 22) and is obtained from Dr. D. Fabbro (Novartis Pharma AG, Basel, Switzerland) and has been previously described (Blobe G C, et al. J. Biol. Chem. 1993; 268:658-664).
For the antiproliferative assays, cells are seeded at 1.5×10^3/well into 96-well microtiter plates and incubated overnight. Compounds are added in serial dilutions on day 1. The plates are than incubated for additional 5 days. This allowed the control cultures to undergo at least 3 cell divisions. After incubation the cells are fixed with 3.3% v/v glutaraldehyde, washed with water and stained with 0.05% w/v methylene blue. After washing, the dye is eluted with 3% v/v HCl and the optical density measured at 665 nm with a SpectraMax 340 (Bucherer, Basel, Switzerland). IC50 values are determined by a computerized system (SoftPro, Bucherer, Basel, Switzerland) using the formula (OD test—OD start)/(OD control—OD start)×100. IC50 is defined as the drug concentration which leads to 50% of cells per well compared to control cultures (100%) at the end of the incubation period.

The subject of a further test is Raf-1. As to the kind of experiment: Western blot, Raf-1 phosphorylation. The format is cell-based, human. On the procedure: as §1
Where [1] appears, read: MDA-MB-435 cells, 24 hour treatment.

As a reminder, the IC50 is the concentration needed to halve the response being measured. Consider `C=C/C=C\[C@H](C)[C@H](OC(N)=O)[C@@H](C)[C@H](O)[C@@H](C)C/C(C)=C\[C@H](C)[C@@H](O)[C@@H](C)/C=C\[C@@H](O)C[C@@H]1OC(=O)[C@H](C)[C@@H](O)[C@H]1C` [discodermolide, (+)-Discodermolide], for which the Bcl-xL phosphorylation entry in the test with Bcl-xL (A549 cells) and in the test on Bcl-xL (MDA-MB-435 cells) was “phosphorylated” in each case. Also, the IC50 in the test on HCT-15 colon cells (HCT-15, 120 h) was approximately 0.008 µM. Also, the Raf-1 phosphorylation result is “phosphorylated” in the test on Raf-1 (1A9 parental cells); “phosphorylated” in the test on Raf-1 (A549 cells, 24 hour treatment); “phosphorylated” with Raf-1 (setting [1]); “phosphorylated” with Raf-1 (PTX-22 cells).
As for `CC(=O)O[C@H]1C(=O)[C@@]2(C)[C@H]([C@H](OC(=O)c3ccccc3)[C@]3(O)C[C@H](OC(=O)[C@H](O)[C@@H](NC(=O)c4ccccc4)c4ccccc4)C(C)=C1C3(C)C)[C@]1(OC(C)=O)CO[C@@H]1C[C@@H]2O` [paclitaxel, reference compound], the Bcl-xL phosphorylation entry in the test on Bcl-xL (A549 cells) and in the test with Bcl-xL (MDA-MB-435 cells) was “phosphorylated” each time. Also, in the test on HCT-15 colon cells (120 h, HCT-15 colon cells, 5 days incubation), the IC50 is approximately 0.12 µM. Moreover, the Raf-1 phosphorylation result was “phosphorylated” with Raf-1 (1A9 parental cells); “phosphorylated” with Raf-1 (A549 cells, 24 hour treatment); “phosphorylated” in the test on Raf-1 (setting [1]); “not observed” in the test on Raf-1 (PTX-22 cells).
